Measured values reported in patent publication US20250134853A1, “COMPOUNDS AND METHODS FOR USING GALLOYLATED POLYPHENOLS TO TREAT DISEASES MEDIATED BY THIOL ISOMERASES” (Beth Israel Deaconess Medical Center, Inc., priority 2023, published 2025).
“Also recorded” adds a separate entry of the source.

Experiments:
PDI [1] = biological target: T1, PDI (Homo sapiens, UniProt P07237); test: Di-eosin-GSSG disulfide reductase assay, PDI; type: biochemical; conditions: Table 1; IC50 curves on PDI activity (FIGS. 13B-E, 17A-E); read-out: Relative PDI inhibition
T1 construct: FLAG; made in house; host or cells: Escherichia coli Origami B (DE3)
Description: (§1) Di-eosin-GSSG disulfide reductase assay. The probe di-eosin glutathione disulfide, di-eosin-GSSG, was prepared by incubating 100 μM of GSSG with 1 mM of eosin isothiocyanate in 100 mM potassium phosphate containing 2 mM EDTA (pH 7.4), at 25° C. overnight in the dark. The mixture was passed down a PD-10 column and different fractions were collected. A fold change of fluorescence (Ex: 520 nm, Em: 550 nm) was calculated using samples subjected to either vehicle or 20 mM of DTT. Any fraction with a fold change >5 was kept. Using a stock of 10 mM eosin isothiocyanate, a standard curve was generated and concentration of samples were determined accordingly. Di-eosin-GSSG cleavage of purified thiol isomerases and PDI domains was monitored in a 96-well fluorescence plate format. PDI, CGXC-PDI variants, ERp5, ERp57, ERp46 and PDI domains were assayed at 50 nM in the presence or absence of the indicated small molecules. The assay included a thiol isomerase assay buffer (39 mM KH2PO4, 61 mM K2HPO4, 2 mM EDTA, 5 M DTT, pH 7.4) and 150 nM of the di-eosin-GSSG probe. The increase in fluorescence was determined for 60 min by excitation at 520 nm and emission at 550 nm in a Synergy Biotek 4. The reduction of 150 nM di-eosin-GSSG by 5 μM DTT in the presence or absence of mentioned small molecule or proteins served as a negative control.

PDI [2] = biological target: T1, PDI; test: Insulin reductase assay; type: biochemical; conditions: 20 μM
Description: Insulin reductase assay. Insulin was prepared by mixing 12.5 mg/mL insulin in 50 mM Tris-HCl, pH 8. 1 M HCl was carefully added to drop the pH to 2.0 for solution clarification. Once the solution clarifies, 1 M NaOH was added to rapidly adjust the pH back to 8.0. The solution was then adjusted to 1.5 mM (10 mg/mL) with 50 mM Tris-HCl, aliquoted and stored in −20° C. until use. 2× concentrations of thiol isomerases were prepared (final concentrations as indicated in each assay) and mixed with 1.2 mM DTT (final 0.3 mM) and 0.4 mM insulin (final 0.1 mM) using a thiol isomerase activity assay buffer. Insulin precipitation from enzyme-mediated reduction was assayed in 96-well clear bottom plates at 650 nm absorption.

[3] = tested on: PDI domain fragments (a, a′, ab, abb′, b′xa′); test: Di-eosin-GSSG assay on isolated PDI domain fragments; type: biochemical; conditions: 20 μM
Description: as §1

[4] = tested on: recombinant PDI, ERp57, and ERp5; test: Di-eosin-GSSG assay, thiol isomerases at 20 μM compound; type: biochemical; conditions: 15 minute incubation
SARS-CoV-2 M^pro [5] = biological target: T2, SARS-CoV-2 M^pro (Severe acute respiratory syndrome coronavirus 2, UniProt P0DTD1); conditions: literature values (Table 2); read-out: SARS-CoV-2 M^pro inhibition; cited from earlier work
SARS-CoV-2 = conditions: cited from earlier work
SARS-CoV-2 M^pro [6] = biological target: T2, SARS-CoV-2 M^pro; conditions: cited from earlier work
platelets = conditions: cited from earlier work

T1 sequence (P07237 18-508): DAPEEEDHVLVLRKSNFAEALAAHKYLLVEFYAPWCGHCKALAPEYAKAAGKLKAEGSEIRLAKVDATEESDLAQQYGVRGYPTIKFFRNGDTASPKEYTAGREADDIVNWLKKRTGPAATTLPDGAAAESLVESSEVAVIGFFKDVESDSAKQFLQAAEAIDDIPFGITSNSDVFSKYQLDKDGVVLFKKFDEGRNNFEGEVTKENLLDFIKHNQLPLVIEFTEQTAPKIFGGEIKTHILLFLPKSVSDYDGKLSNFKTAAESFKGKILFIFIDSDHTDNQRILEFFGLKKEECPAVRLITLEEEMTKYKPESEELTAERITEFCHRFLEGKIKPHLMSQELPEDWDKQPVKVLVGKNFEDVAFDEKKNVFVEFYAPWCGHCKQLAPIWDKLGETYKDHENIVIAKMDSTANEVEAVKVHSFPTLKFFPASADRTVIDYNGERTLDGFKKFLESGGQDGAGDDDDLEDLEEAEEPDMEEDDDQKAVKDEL

## 1,2,3,4,6-pentagalloylglucose [Pentagalloyl-glucose]
PDI [1]
  IC50: 2900 nM
PDI [2]
  inhibition of the ability of PDI to reduce insulin: inhibited the ability of PDI to reduce insulin
[3]
  inhibition of isolated a′ domain cleavage of di-eosin-GSSG: inhibited the ability of isolated a′ domain to cleave di-eosin-GSSG
[4]
  inhibition of thiol isomerases (PDI, ERp57, ERp5) in words: potently inhibited all thiol isomerases tested
SARS-CoV-2 M^pro [5]
  IC50: 25 µM
SARS-CoV-2; Vero Cells, read-out: Inhibition of viral replication IC50
  IC50: 15 µM
SARS-CoV-2
  inhibition of SARS-CoV-2 / infection (in words): inhibits SARS-CoV-2 viral infection in culture
SARS-CoV-2 M^pro [6]
  Modeling shows gallic acid interaction with His41 or Glu166: occludes His41;; also recorded: reacts with Glu166
platelets
  antiplatelet activities: have antiplatelet activities
